Drawing on ChEMBL document CHEMBL4152310, “Design and synthesis of novel benzenesulfonamide containing 1,2,3-triazoles as potent human carbonic anhydrase isoforms I, II, IV and IX inhibitors” (Eur J Med Chem, 2018), this text covers Ki for 20 compounds.

pKi: −log10 of the molar value.

The experiment has as its target Carbonic anhydrase 9 (Homo sapiens, UniProt Q16790). Kind of experiment: Binding affinity to human carbonic anhydrase 9 by stopped flow CO2 hydration assay.
For orientation: pKi means −log10 of the Ki, conventionally taken in molar units. Higher therefore signals a low Ki. `COc1ccc(C(=O)c2nnn(-c3ccc(S(N)(=O)=O)cc3)c2C(F)(F)F)cc1`: the pKi was 6.85.

As for `NS(=O)(=O)c1ccc(-n2cc(C(=O)c3ccccc3)nn2)cc1`, the negative-log Ki (pKi) is 6.86.

Take `NS(=O)(=O)c1ccc(-n2cc(C(=O)c3ccc(Cl)cc3)nn2)cc1`: the pKi was 7.56.

`NS(=O)(=O)c1ccc(-n2cc(C(=O)c3ccccn3)nn2)cc1` had a negative-log Ki (pKi) of 6.74.

On to `NS(=O)(=O)c1ccc(-n2nnc(C(=O)c3ccc(Cl)cc3)c2C(F)(F)F)cc1`, for which the pKi is 7.32.

For the compound `NS(=O)(=O)c1ccc(-n2nnc(C(=O)c3ccc4ccccc4c3)c2C(F)(F)F)cc1`, the negative-log Ki (pKi) was 6.61.

`Cc1ccc(C(=O)c2nnn(-c3ccc(S(N)(=O)=O)cc3)c2C(F)(F)F)cc1` had a pKi of 6.84.

Compound `NS(=O)(=O)c1ccc(-n2nnc(C(=O)c3ccc(Br)cc3)c2C(F)(F)F)cc1` gave a pKi of 7.45.

Regarding `NS(=O)(=O)c1ccc(-n2nnc(C(=O)c3cccs3)c2C(F)(F)F)cc1`, the pKi was 7.34.

As for `Cc1ccc(C(=O)c2cn(-c3ccc(S(N)(=O)=O)cc3)nn2)cc1`, the pKi was 6.49.

For the compound `NS(=O)(=O)c1ccc(-n2cc(C(=O)c3cccs3)nn2)cc1`, the negative-log Ki (pKi) was 6.44. This pKi and that of the compound before are within 0.2 log units of each other.

Take `NS(=O)(=O)c1ccc(-n2nnc(C(=O)c3ccccn3)c2C(F)(F)F)cc1`: the pKi is 6.81.

Compound `NS(=O)(=O)c1ccc(-n2nnc(C(=O)c3ccc(F)cc3)c2C(F)(F)F)cc1` showed a pKi of 7.42.

Regarding `NS(=O)(=O)c1ccc(-n2cc(C(=O)c3ccco3)nn2)cc1`, the pKi is 6.66.

With `NS(=O)(=O)c1ccc(-n2cc(C(=O)c3ccc(F)cc3)nn2)cc1`, the pKi is 7.32.

Consider `COc1ccc(C(=O)c2cn(-c3ccc(S(N)(=O)=O)cc3)nn2)cc1`, for which the pKi is 6.84.

Consider `NS(=O)(=O)c1ccc(-n2cc(C(=O)c3ccc4ccccc4c3)nn2)cc1`, for which the pKi is 6.90.

In turn, `NS(=O)(=O)c1ccc(-n2nnc(C(=O)c3ccco3)c2C(F)(F)F)cc1` had a pKi of 6.72.

`NS(=O)(=O)c1ccc(-n2nnc(C(=O)c3ccccc3)c2C(F)(F)F)cc1` had a pKi of 7.40. This pKi is 0.68 log units higher than that of the compound before.

Take `NS(=O)(=O)c1ccc(-n2cc(C(=O)c3ccc(Br)cc3)nn2)cc1`: the pKi is 7.35.
